Converted amounts (≈) assume the structure as drawn. Read-outs that look alike come from different tables or passages of the source.
Assays:
[1] = test system: Entero. cloacae HH 31254; test: MIC in vitro, Entero. cloacae HH 31254; format: cell-based; settings: Enterobacter cloacae
Method: (§1) The compounds of Formula I have antibacterial activity against both Gram-positive and Gram-negative organisms. Minimum inhibitory concentrations (MIC's) range from 0.2 to >200 μg/ml in in vitro testing.

[2] = test system: S. aureus HH 127; test: MIC in vitro, S. aureus HH 127; format: cell-based; settings: Staphylococcus aureus
Method: as §1

[3] = test system: Kleb. pneumo. SK 4200; test: In vivo mouse protection, Kleb. pneumo. SK 4200; settings: sc, Kleb. pneumo. SK 4200, s.c.
[4] = test system: Kleb. pneumo. SK 4200; test: MIC in vitro, Kleb. pneumo. SK 4200; format: cell-based
Method: as §1

[5] = test system: E. coli HH 33779; test: MIC in vitro, E. coli HH 33779; format: cell-based; settings: for MIC: Escherichia coli
Method: as §1

[6] = test system: Shigella HH 117; test: MIC in vitro, Shigella HH 117; format: cell-based; settings: for MIC: Shigella, HH117, Shigella HH 117
Method: as §1

[7] = test system: Proteus morgani 179; test: MIC in vitro, Proteus morgani 179; format: cell-based
Method: as §1

[8] = test system: S. aureus SK 23390; test: MIC in vitro, S. aureus SK 23390; format: cell-based; settings: Staphylococcus aureus
Method: as §1

[9] = test system: Entero. aerog. ATTC 13048; test: MIC in vitro, Entero. aerog. ATTC 13048; format: cell-based
Method: as §1

[10] = test system: Serrati A marc. ATTC 13880; test: MIC in vitro, Serrati A marc. ATTC 13880; format: cell-based
Method: as §1

[11] = test system: Strep. faecalis HH 34358; test: MIC in vitro, Strep. faecalis HH 34358; format: cell-based; settings: for MIC: Enterococcus faecalis, HH34358, Strep. faecalis HH 34358
Method: as §1

[12] = test system: Kleb. pneumo. SK 1200; test: MIC in vitro, Kleb. pneumo. SK 1200; format: cell-based
Method: as §1

[13] = test system: E. coli SK 12140; test: In vivo mouse protection, E. coli SK 12140; settings: Escherichia coli
Method: as §1

[14] = test system: Pseudo. aerug. HH 63; test: MIC in vitro, Pseudo. aerug. HH 63; format: cell-based
Method: as §1

[15] = test system: E. coli SK 12140; test: MIC in vitro, E. coli SK 12140; format: cell-based; settings: Escherichia coli
Method: as §1

[16] = test system: Salmonella ATCC 12176; test: MIC in vitro, Salmonella ATCC 12176; format: cell-based; settings: ATCC12176, Salmonella ATCC 12176
Method: as §1

[17] = test system: S. villaluz SK 70390; test: MIC in vitro, S. villaluz SK 70390; format: cell-based
Method: as §1

[18] = HH31254, Entero. cloacae HH 31254, read-out: MIC in vitro
[19] = HH33779, E. coli HH 33779, read-out: MIC in vitro
[20] = SK23390, S. aureus SK 23390, read-out: MIC in vitro
[21] = Entero. aerog. ATTC 13048, read-out: MIC in vitro
[22] = read-out: MIC in vitro, Entero. aerog. ATTC 13048
[23] = read-out: MIC in vitro, Kleb. pneumo. SK 1200
[24] = SK12140, po, E. coli SK 12140, p.o.
[25] = SK12140, sc, E. coli SK 12140, s.c.
[26] = SK12140, E. coli SK 12140, read-out: MIC in vitro
[27] = HH127, S. aureus HH 127, read-out: MIC in vitro

Row | Structure (SMILES) | MIC [1, 18] | MIC ([2]; HH127, read-out: MIC in vitro) | MIC [4] | MIC [5, 19] | MIC [6] | MIC [8, 20] | MIC [9, 21] | MIC [9, 22] | MIC [10] | MIC [11] | MIC [12, 23] | ED50 [13, 24] | ED50 [13, 25] | MIC [14] | MIC [15, 26] | MIC [2, 27] | MIC [16] | MIC [7] | MIC [17] | other results
1 | O=C(O)C1=C(CSc2nnnn2CCNS(=O)(=O)O)CSC2C(NC(=O)[C@H](O)c3ccccc3)C(=O)N12 (stereo partly drawn) [Compound 1, 7-D-mandelamido-3-[1-(2-sulfaminoethyl)tetrazol-5-ylthiomethyl]-3-cephem-4-carboxylic acid] | 1.6 µg/mL (≈ 2.8 µM) | 3.1 µg/mL (≈ 5.42 µM) | 1.6 µg/mL (≈ 2.8 µM) | 3.1 µg/mL (≈ 5.42 µM) | 0.4 µg/mL (≈ 0.7 µM) | 0.8 µg/mL (≈ 1.4 µM) | 50 µg/mL (≈ 87.5 µM) | 6.3 µg/mL (≈ 11 µM) | 100 µg/mL (≈ 175 µM) | 100 µg/mL (≈ 175 µM) | 0.4 µg/mL (≈ 0.7 µM) | 50 mg/kg | 0.46 mg/kg | > 200 µg/mL | 0.8 µg/mL (≈ 1.4 µM) | – | – | – | – | ED50 [3]: 0.46 mg/kg; MIC in vitro [4]: 0.8 µg/mL (≈ 1.4 µM); MIC in vitro ([5]; E. coli HH 33779): 1.6 µg/mL (≈ 2.8 µM); MIC in vitro ([6]; Shigella HH 117): 0.2 µg/mL (≈ 0.35 µM); MIC in vitro [7]: 3.1 µg/mL (≈ 5.42 µM); MIC in vitro ([11]; Strep. faecalis HH 34358): 50 µg/mL (≈ 87.5 µM); MIC in vitro ([12]; Kleb. pneumo. SK 1200): 0.2 µg/mL (≈ 0.35 µM)
2 | O=C(Cc1cccs1)NC1C(=O)N2C(C(=O)O)=C(CSc3nnnn3CCNS(=O)(=O)O)CSC12 (stereo not shown) [Compound 2, 7-(2-thienylacetamido)-3-[1-(2-sulfaminoethyl)tetrazol-5-ylthiomethyl]-3-cephem-4-carboxylic acid] | 6.3 µg/mL (≈ 11.2 µM) | – | 3.1 µg/mL (≈ 5.52 µM) | 12.5 µg/mL (≈ 22.3 µM) | – | – | 25 µg/mL (≈ 44.5 µM) | – | > 200 µg/mL | 12.5 µg/mL (≈ 22.3 µM) | – | > 50 mg/kg | 1.02 mg/kg | > 200 µg/mL | – | 1.6 µg/mL (≈ 2.85 µM) | 12.5 µg/mL (≈ 22.3 µM) | > 200 µg/mL | – | MIC ([8]; SK23390, read-out: MIC in vitro): 0.4 µg/mL (≈ 0.712 µM); MIC ([12]; Kleb. pneumo. SK 1200, read-out: MIC in vitro): 0.8 µg/mL (≈ 1.42 µM); MIC ([15]; SK12140, read-out: MIC in vitro): 3.1 µg/mL (≈ 5.52 µM)
3 | O=C(Cn1cnnn1)NC1C(=O)N2C(C(=O)O)=C(CSc3nnnn3CCNS(=O)(=O)O)CSC12 (stereo not shown) [Compound 3, 7-(1-tetrazolylacetamido)-3-[1-(2-sulfaminoethyl)tetrazol-5-ylthiomethyl]-3-cephem-4-carboxylic acid] | – | 3.1 µg/mL (≈ 5.66 µM) | 0.8 µg/mL (≈ 1.46 µM) | – | 0.4 µg/mL (≈ 0.731 µM) | 3.1 µg/mL (≈ 5.66 µM) | – | 3.1 µg/mL (≈ 5.66 µM) | 200 µg/mL (≈ 365 µM) | 50 µg/mL (≈ 91.3 µM) | 0.4 µg/mL (≈ 0.731 µM) | – | 1.56 mg/kg | > 200 µg/mL | 0.8 µg/mL (≈ 1.46 µM) | – | 0.4 µg/mL (≈ 0.731 µM) | 200 µg/mL (≈ 365 µM) | > 200 µg/mL | MIC ([1]; HH31254, read-out: MIC in vitro): 0.8 µg/mL (≈ 1.46 µM); MIC ([5]; HH33779, read-out: MIC in vitro): 0.8 µg/mL (≈ 1.46 µM)
4 | O=C(CSC(F)(F)F)NC1C(=O)N2C(C(=O)O)=C(CSc3nnnn3CCNS(=O)(=O)O)CSC12 (stereo not shown) [Compound 4, 7-trifluoromethylthioacetamido-3-[1-(2-sulfaminoethyl)tetrazol-5-ylthiomethyl]-3-cephem-4-carboxylic acid] | 1.6 µg/mL (≈ 2.76 µM) | – | 0.8 µg/mL (≈ 1.38 µM) | 1.6 µg/mL (≈ 2.76 µM) | 0.8 µg/mL (≈ 1.38 µM) | 1.6 µg/mL (≈ 2.76 µM) | – | 6.3 µg/mL (≈ 10.9 µM) | 100 µg/mL (≈ 173 µM) | 100 µg/mL (≈ 173 µM) | 0.2 µg/mL (≈ 0.345 µM) | 50 mg/kg | 1.82 mg/kg | > 200 µg/mL | 0.8 µg/mL (≈ 1.38 µM) | 1.6 µg/mL (≈ 2.76 µM) | 0.4 µg/mL (≈ 0.69 µM) | > 200 µg/mL | > 200 µg/mL | –

— patent US4118491A, “7-Acyl-3-(sulfaminoalkyl substituted tetrazolylthiomethyl)cephalosporins, antibacterial compositions containing them and methods of treating bacterial infections with them” (SmithKline Corporation, priority 1976, dated 1978)
